{"source": "patent US20260207620A1", "about": "“SOLID DISPERSION OF COMPOUND HAVING P2X4 RECEPTOR ANTAGONISTIC ACTION” (NIPPON CHEMIPHAR CO., LTD., priority 2023, published 2026)", "key": {"[1]": {"assay": "PK test of compound F2 and its solid dispersion, oral, fasted male Wistar rats", "type": "in vivo", "conditions": "Wistar (Crlj:WI), rat, compound F2 in plasma, 10 mg/kg (as compound F2) p.o., n=3", "protocol": "Fasted male rats (8 weeks old, Wistar (Crlj:WI), Charles River Laboratories Japan, Inc.) were orally administered a crystalline form of the compound F2 suspended in a 1% methylcellulose aqueous solution or a solid dispersion comprising the compound F2 suspended in water for injection. The dosage of the compound F2 in each group was 10 mg/kg (n=3 in each group). Blood samples were collected in a time-dependent manner at 0.5, 1, 2, 4, 6, 8, and 24 hours after oral administration. The concentration of the compound F2 in the obtained plasma was measured by LC-MS/MS (MS/MS: API4000, SCIEX, LC: LC-20AD series, Shimadzu Corporation). Tmax, Cmax, and AUClast were calculated from the plasma concentration transition (Table 5)."}, "solubility in water": {"assay": "solubility in water", "type": "physicochemical"}, "[2]": {"assay": "PK test, solid dispersions E and B of compound F48, single oral dose, fasted male Wistar rats", "type": "in vivo", "conditions": "Wistar (Crlj:WI), rat, compound F48 in plasma, 10 mg/kg (as compound F48) p.o. once, n=3", "protocol": "Solid dispersions E and B were prepared using a rotary evaporator according to the following method. The compound F48 was dissolved in THF to result in 2.5 mg/mL. By the same procedure as above, each polymer was prepared to result in 25 mg/mL. Next, the compound F48 solution was added to the polymer solution with stirring such that the weight ratio between the compound F48 and the carrier was 1:25. The resulting mixture was transferred to a recovery flask, and the organic solvent was then removed using a rotary evaporator (Yamato Scientific Co., Ltd., distillation apparatus). The recovery flask was transferred to a desiccator and dried under reduced pressure using a vacuum pump for approximately 16 hours, thereby obtaining solid dispersions E and B. […]\nBlood samples were collected in a time-dependent manner before oral administration and at 0.5, 1, 3, 5, 8, and 24 hours after oral administration. The concentration of the compound F48 in the obtained plasma was measured by HPLC (Hitachi High-Technologies Corporation). The time to reach the maximum plasma concentration (Tmax), the maximum plasma concentration (Cmax), and the area under the plasma concentration-time curve (AUClast) were calculated from the plasma concentration transition (Table 2)."}}, "data": [{"molecule": "O=C1CC(=O)N(c2ccc(NC(=O)c3ccccc3C(F)(F)F)cc2)c2ccc3ccccc3c2N1", "note": "[Compound F2, 5-[4-[2-(trifluoromethyl)benzoyl]aminophenyl]-1H-naphtho [1,2-b][1,4]diazepine-2,4 (3H,5H)-dione]", "values": [{"measurement": "AUC(0-t)", "setting": "[1]", "value": "5710 ± 520", "unit": "ng·h/mL"}, {"measurement": "Cmax", "setting": "[1]", "value": "386 ± 56", "unit": "ng/mL"}, {"measurement": "Tmax", "setting": "[1]", "value": 4, "unit": "h"}, {"measurement": "solubility in water", "setting": "solubility in water", "value": "poorly soluble in water"}]}, {"molecule": "O=C1CC(=O)N(c2ccc(NC(=O)c3ccccc3I)cc2)c2ccc3ccccc3c2N1", "note": "[Compound F48, 5-[4-(2-iodobenzoylamino)phenyl]-1H-naphtho [1,2-b][1,4]diazepine-2,4 (3H,5H)-dione]", "values": [{"measurement": "solubility in water", "setting": "solubility in water", "value": "poorly soluble in water"}]}, {"molecule": "CCc1ccccc1C(=O)Nc1ccc(N2C(=O)CC(=O)Nc3c2ccc2ccccc32)cc1", "note": "[Compound F57, 5-[4-[(2-ethylbenzoyl)amino]phenyl]-1H-naphtho [1,2-b][1,4]diazepine-2,4 (3H,5H)-dione]", "values": [{"measurement": "solubility in water", "setting": "solubility in water", "value": "poorly soluble in water"}]}, {"molecule": "O=C1CC(=O)N(c2ccc(NC(=O)c3ccccc3I)cc2)c2ccc3ccccc3c2N1", "note": "[Control, 5-[4-(2-iodobenzoylamino)phenyl]-1H-naphtho [1,2-b][1,4]diazepine-2,4 (3H,5H)-dione]", "values": [{"measurement": "Cmax", "setting": "[2]", "value": "< 25", "unit": "ng/mL"}]}]}
